{"source": "patent US11026419B2", "about": "“Silver- and copper-chelating ionic liquids, polymers, and gels, and uses thereof” (Massachusetts Institute of Technology, priority 2016, dated 2021)", "key": {"HEK cells": {"test_system": "HEK cells", "experiment": "Cell viability assay, LDH release", "assay_type": "cell-based, human", "conditions": "24 hours treatment, at the higher concentrations tested", "description": "The toxicity of the compounds towards human cells was tested using HEK cell lines (FIG. 5), which were cultured in DMEM medium and 10% Fetal Bovine Serum at 37° C. in 5% CO2. 5×10^4 cells were seeded into 96-well plates 24 hours before treatment. Incremental concentrations of ionic liquids (diluted 2×) were added into the wells for another 24 hours. The release of the cytosolic enzyme lactate dehydrogenase (LDH) was then measured, following the manual of Pierce LDH Cytotoxicity Assay Kit (Thermofisher, Mass., USA). Untreated cells (live cells) and cells treated with lysis buffer for 2 hours (dead cells) were used as the reference for normalization. All experiments were performed in triplicate. […] Experiments were repeated using an MTX assay with the trend in the results matching those of the LDH assay."}, "[1]": {"test_system": "Pseudomonas aeruginosa (PA14)", "experiment": "Antimicrobial sensitivity, colony forming units (CFU) of PA14", "assay_type": "cell-based", "conditions": "PA14, compared with control samples (FIG. 2)", "excerpt": "Antimicrobial sensitivity experiments used Pseudomonas aeruginosa (PA14, FIG. 2) a gram-negative monoflagellated bacterium. This is a model bacterium for such studies as it is […] and is an opportunistic human pathogen, colonizing immunocompromised patients, such as those with cystic fibrosis, cancer, or AIDS [15]."}, "PA14": {"test_system": "PA14", "experiment": "Turbidity of PA14 solutions as indication of bacterial growth", "assay_type": "cell-based, Pseudomonas aeruginosa", "conditions": "PA14 solution with 10 uL IL (FIG. 3)"}}, "data": [{"substance": "N-butyl(ethylenediaminium) bis(trifluoroethanesulfonyl)amide [[HButylen][Tf2N]]", "values": [{"measurement": "reduced cell viability", "setting": "HEK cells", "value": "~50", "unit": "%"}]}, {"substance": "N-hexylethylenediaminium bis(trifluoroethanesulfonyl)amide [[HHex][Tf2N]]", "values": [{"measurement": "drop in the colony-forming unit (CFU)", "setting": "[1]", "value": "~3 orders of magnitude"}, {"measurement": "turbidity / bacteria growth", "setting": "PA14", "value": "no turbidity"}, {"measurement": "reduced cell viability", "setting": "HEK cells", "value": "~50", "unit": "%"}]}]}
